According to PMC6452685, “Lysyl-tRNA synthetase as a drug target in malaria and cryptosporidiosis” (Proceedings of the National Academy of Sciences of the …, 2019):

What was measured:
[1] = system: Plasmodium falciparum; assay: In vitro parasite reduction ratio (PRR) assay; type: cell-based; conditions: 10 x EC50, 120 h
Description: 3.5 In vitro parasite reduction ratio (PRR) assay with Pl as modi um fal c i p aru m (G S K) The in vitro Parasite Rate Reduction assay (PRR) was conducted as previously described (8). […] Drug was renewed daily over the entire treatment period. Samples of paras i t es w ere t ak en from t he t reat ed cul t ure at i nt erv al s (24, 48, 72, 96 and 120 h t i me poi nt s ), drug was washed out and drug-free paras i t es w ere cul tured i n 96-well plates by adding fre s h e ry t hrocy t e s
and new cul ture medi a. T he n umber of vi abl e parasi tes was determi ned by the seri al di l uti on technique. Four indepe ndent serial dilutions were done with each sample to correct for experimental

[2] = system: Pf(TM90C2B); assay: Drug resistant P. falciparum TM90C2B, [3H]-hypoxanthine incorporation; type: cell-based; conditions: Plasmodium falciparum, atovaquone-resistant
From the text: 3.2 Cytotoxicity Studies (Dundee)
In vi t ro cy totox i ci ty s tudies can be ca rri ed out us i ng Hep G 2 (Human C aucas i an hepatocy te ca rci noma, ECACC cat. no. 850 114 30) us ed as i ndi cators f or g eneral mammal i an cel l tox i ci ty . […]
3.3 In vitro Cell Assay D ata Analysis (Du ndee) […]
as 0%. Qual i ty control c ri teri a for passi ng pl ates were as fol l ow s : Z’ > 0.
< 15 . T he f ormula used to calculate Z’ is 1- 3´ (St D e v _ hi gh + St D e v_ low) . […]
Al l EC50 Curve fitti ng was undertaken usi ng XLFi t versi on 4.2 usi ng Model 205 wi th the foll owi ng 4 paramet ri c equat i on: A + (?-A) ,where A=% i nhi bi ti on at bo ttom, B=% i nhi bi ti on at top, C= EC , […]
D= slope, x= inhibitor concentration a nd y= % inhibition. […]
was fixed to 100 only when at least 50% of inhibition was reached. […]
Hoffmann-La Ro che Ltd) a nd resi stant strai ns K1 and TM90C2B (fr om the Malaria Research an d Reference Reag ent Res ou rce C enter, accu rate d es cri pti ons of the g eneti c backg roun ds of thes e strains can be obtained at http://www.beiresources.org) were cultivated in a variation of the medium prev i ous l y des cri bed (5, 6), c onsi sti ng of RPMI 16 40 su ppl emented wi th 0.5% ALBUMAX® II, 25 m M Hepes , 25 mM NaHC O3 (pH 7. […] The re s ul t s were recorded and expressed as a percentage of the untreated controls. […]

[3] = system: Nluc-expressing transgenic C. parvum; assay: Anti-Cryptosporidium in vivo efficacy in IFN-γ-knockout mice (Nluc C. parvum); design: species or system mouse; conditions: 20 mg/kg orally once a day for 7 d
Description: INF-γ–knockout mice ([28], [29]) were infected orally with Nluc-expressing transgenic C. parvum oocysts. Treatment started upon patency 4 d postinfection (p.i.), and mice were treated orally once a day for 7 d. Infection was monitored daily by luciferase measurements in pooled feces of the entire cage. Mice were followed for 3 wk after completion of drug treatment. […] NOD SCID gamma mice were infected with C. parvum oocysts ([26]). Treatment started 7 d p.i., and mice were treated orally once a day for 7 d. The study was run with four mice per cage; infection was monitored by quantitative PCR on day eight for individual mice, and data are shown as oocysts per milligram of feces. […]
Data analysis was performed using GraphPad Prism 7.0 (GraphPad S oftware), Excel 2016 (Microsoft ) and R free so ftware (https://www.r-project.org) for data pl otti ng and s tati s ti cal model li ng. […]
5. 4 M eas urement of a nt i-Cryptosporidium in vivo efficacy in IFN-γ-knockout mice (Georgia) The Nl uc-C. parvum IFN-γ-knockout (IFN-γ KO) m ouse in vivo experiments were run in acco rdance with the publ i s hed method (22). Briefly, female C57BL/ 6 IFN-γ KO mi ce, aged 6–8 weeks were infected with 10,000 C. parvum UG A1 Nl uc (Vi naya k et al 2015, Natu re) tra ns g eni c oocys ts . […]

[4] = Toxicity in mice at higher doses; type: in vivo; conditions: higher doses (50 mg/kg orally)
[5] = system: C. hominis (TU502); assay: Activity against Cryptosporidium hominis; type: cell-based
Description: Thi s i s bas ed on methods previ ousl y reported (14). Mature P. falciparum stage V gametocytes (NF54)
were incubated with test compound for 24 h at 3 7°C i n 384-well plates containing complete culture
medi um (RPMI 1640, 25 mM HEPES, 2 g/l D-glucose, 2 g/l sodium bicarbonate, 50 mg/l
Gametogenesis was triggered by dis pens i ng 10 µl ookinete medium (RPMI 1640, 25 mM HEPES, 2 g/l
D-glucose, 2 g/l sodium bicarbonate, 50 mg/l hy pox ant hi ne, 100 µM xanthurenic acid) also
contai ni ng 2. 7 µg/ml anti-Pfs25-Cy3 into each well and cooling the plate on a metal block at 4 °C fo r
4 mi n. Fi fteen s l ater male gametogenesis was recorded by b ri ghtfi el d i magi ng usi ng ti m e s 6 object i v e
and then the pl ate stored at 2 6 °C for a fu rther 24 h to allow female gametes to develop. Female
gamete formation was assessed by fluorescence m icroscopy using x6 objective to identify anti-Pfs25-
gentian violet negative and positive controls.
3.1 3 Act iv it y a gains t Cry pt os pori diu m h omi nis (CALIBR)
Thi s i s bas ed on methods previ ousl y reported (10).

O=C(NCC1(O)CCC(F)(F)CC1)c1cc(=O)c2cc(F)ccc2o1 [Compound 5]
rate of killing (PRR assay) [1]: slow rate of killing
EC50 [2]: 0.52 µM
parasite shedding ([3]; INF-γ–knockout mice): below detection level
reduction in parasite levels compared with control ([3]; INF-γ–knockout mouse, day 8): 10,000 fold
toxicity in mice [4]: showed toxicity
EC50 [5]: 6 µM
